# In US10092657B2, “Opsonized β-glucan preparations and methods” (Biothera, Inc., priority 2011, dated 2018):
# How the values were obtained:
# [1] = tested on: human monocytes; test: Binding of PGG β-glucan after serum pre-treatment, monocytes; format: cell-based; conditions: 100 μg/mL; 10% HI serum; two hours at 37° C.
# Procedure: PGG β-glucan at concentration 60-80 mg/mL was incubated with human serum at 1:10 volume ratio for 30 minutes in a 37° C. water bath. The serum-pretreated PGG β-glucan was added to neutrophils at 200 μg/mL or to PBMC at 100 μg/mL resuspended in RPM1 containing either 10% regular autologous serum or 10% HI serum at indicated time and temperature of incubation. Binding was then determined as described previously.
# To determine the role of complement proteins in binding, experiments were performed as described above except for using serum containing 10% HI, compstatin-treated or methylamine (MA)-treated, EGTA- or EGTA+MgCl2 (MgEGTA)-treated, or factor D-blocked serum. Heat-inactivated (HI) serum was prepared by incubating serum in a 56° C. water bath for 30 minutes. […] Treatment of serum with methylamine (MA) was done by incubating serum with 0.67% of methylamine for 2.5 hours at 37° C., followed by three washes with DPBS using Amicon centrifugal filter unit with a 3K MW cut-off (Millipore, Billerica, Mass.). DPBS-treated serum was prepared in the same manner and used as control serum for MA-treated serum. For blocking of factor D in the serum, 166-32 at concentration 20 μg/mL was incubated with serum on ice for 30 minutes, and then used for binding studies. […]
# [2] = tested on: human neutrophils; test: Binding of DTAF-labeled PGG β-glucan to human neutrophils, with excess unlabeled competitor; format: cell-based; conditions: 10 mg/mL unlabeled competitor; 25 μg/mL DTAF-labeled β-glucan
# Procedure: In early optimization experiments, neutrophils, monocytes, and T cells were identified by staining with fluorescently labeled anti-CD 15, anti-CD 14, or anti-CD3 Abs, respectively. Events were collected on a LSRII flow cytometer (BD Biosciences, San Jose, Calif.) and analysis was performed using FLOWJO (Tree Star, Ashland, Oreg.). For assessing binding of DTAF-labeled PGG β-glucan to human neutrophils, 25 βg/mL, 100 μg/mL, or 400 μg/mL of labeled β-glucan was added to neutrophils resuspended in RPMI/10% serum, incubated in a 37° C., 5% CO2 humidified incubator for one hour, washed twice with cold FACS buffer, and fixed with 1% paraformaldehyde. Surface binding of DTAF-conjugated β-glucan was subsequently assessed by flow cytometric analysis.
# [3] = biological target: T1, iC3b (Homo sapiens, UniProt P01024); test: Immunoprecipitation of PGG β-glucan with BfD IV and detection of pulled-down iC3b; format: binding
# T1 construct: from tissue
# T1 sequence (P01024 749-1303 limits assumed): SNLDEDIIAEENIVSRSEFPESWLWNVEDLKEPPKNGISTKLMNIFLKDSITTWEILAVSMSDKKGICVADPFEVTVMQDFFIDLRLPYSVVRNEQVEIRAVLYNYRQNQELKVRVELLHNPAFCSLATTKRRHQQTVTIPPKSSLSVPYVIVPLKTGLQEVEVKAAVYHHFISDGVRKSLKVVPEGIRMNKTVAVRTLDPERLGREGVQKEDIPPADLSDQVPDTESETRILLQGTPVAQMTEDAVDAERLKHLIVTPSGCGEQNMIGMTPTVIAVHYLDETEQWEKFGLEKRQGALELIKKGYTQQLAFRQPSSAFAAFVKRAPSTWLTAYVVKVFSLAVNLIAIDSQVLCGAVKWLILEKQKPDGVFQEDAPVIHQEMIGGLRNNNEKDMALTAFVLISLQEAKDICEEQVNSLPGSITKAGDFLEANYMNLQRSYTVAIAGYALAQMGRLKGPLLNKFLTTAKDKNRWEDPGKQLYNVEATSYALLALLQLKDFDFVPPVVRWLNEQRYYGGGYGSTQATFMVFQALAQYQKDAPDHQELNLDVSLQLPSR
# T1 sequence (P01024 23-667 partner limits assumed): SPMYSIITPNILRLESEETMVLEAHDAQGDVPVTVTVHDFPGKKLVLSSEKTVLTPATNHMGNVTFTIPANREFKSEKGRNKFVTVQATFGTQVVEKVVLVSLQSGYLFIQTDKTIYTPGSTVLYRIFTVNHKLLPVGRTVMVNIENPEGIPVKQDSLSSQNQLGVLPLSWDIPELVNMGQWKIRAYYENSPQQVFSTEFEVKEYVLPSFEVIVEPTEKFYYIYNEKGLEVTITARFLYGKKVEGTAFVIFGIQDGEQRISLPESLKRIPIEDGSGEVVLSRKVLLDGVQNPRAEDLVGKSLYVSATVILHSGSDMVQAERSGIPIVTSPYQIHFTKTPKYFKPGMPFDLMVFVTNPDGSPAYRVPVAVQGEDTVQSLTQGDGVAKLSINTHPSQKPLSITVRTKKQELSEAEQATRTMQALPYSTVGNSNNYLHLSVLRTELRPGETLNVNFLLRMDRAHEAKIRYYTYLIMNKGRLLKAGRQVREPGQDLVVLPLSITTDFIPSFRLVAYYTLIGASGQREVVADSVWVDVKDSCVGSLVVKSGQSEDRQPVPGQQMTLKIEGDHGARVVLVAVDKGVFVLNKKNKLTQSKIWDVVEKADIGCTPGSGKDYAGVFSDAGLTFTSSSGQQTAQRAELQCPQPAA
# T1 sequence (P01024 1321-1663 partner limits assumed): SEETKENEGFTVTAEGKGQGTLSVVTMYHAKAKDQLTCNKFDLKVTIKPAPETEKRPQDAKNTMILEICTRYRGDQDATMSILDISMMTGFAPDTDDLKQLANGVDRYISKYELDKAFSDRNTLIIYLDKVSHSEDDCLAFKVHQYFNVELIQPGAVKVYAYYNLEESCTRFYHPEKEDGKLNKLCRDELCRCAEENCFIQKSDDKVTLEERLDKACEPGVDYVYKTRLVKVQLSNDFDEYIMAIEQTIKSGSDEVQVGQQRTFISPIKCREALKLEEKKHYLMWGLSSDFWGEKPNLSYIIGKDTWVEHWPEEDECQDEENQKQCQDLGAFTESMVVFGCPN
# Procedure: PGG β-glucan or dextran at concentration 60-80 mg/mL was incubated with regular or HI serum at 1:10 volume ratio for 30 minutes in a 37° C. water bath. BfD IV Ab was added to the serum/β-glucan mixture and incubated at room temperature for additional 30 minutes. Magnetic beads conjugated with rat anti-mouse IgM (DYNABEADS, Invitrogen, Camarillo, Calif.) were washed three times with DPBS and incubated with serum-PGG β-glucan-BfD IV mixture for another 30 minutes at room temperature. The beads were separated magnetically and iC3b pulled-down along with immunoprecipitated PGG was probed using FITC-conjugated complement C3 Ab by flow cytometer.
# [4] = tested on: sC5b-9 complex; test: Measurement of fluid-phase SC5b-9 complex formation in the serum; format: biochemical, human
# Procedure: The MicroVue SC5b-9 EIA kit was used to measure activation of the classical and alternative pathways of complement according to the vendor's instruction (Quidel Corp., San Diego, Calif.). Briefly, the serum, untreated or treated was mixed with PBS, Ab-sensitized sheep RBC (SRBC), or 20 units of CVF and added to plate wells pre-coated with anti-sC5b-9 monoclonal antibody. The plate was incubated at 37° C. for 60 minutes, followed by five washes with the provided wash buffer. The plate was then incubated with the provided SC5b-9 Plus Conjugate, which contained horseradish peroxidase-conjugated Ab specific for sC5b-9 at room temperature for 30 minutes. The plate was washed five times, incubated with the substrate for 15 minutes at room temperature to initiate the enzymatic reaction and subsequently quenched with the stop solution. OD450 Was measured using the spectrophotometer SpectraMAX 250. The concentration of fluid phase sC5b-9 present in the samples was determined from the standard curve generated with the provided sC5b-9 standards.
# [5] = tested on: human monocytes; test: iC3b staining on PGG β-glucan-bound monocytes (flow cytometry); format: cell-based; conditions: 100 μg/mL; 10% serum; 37° C.; two hours
# From the text: Binding of PGG β-glucan to neutrophils and PBMC was done as above. iC3b deposition on these cells was detected by staining with a neo-epitope specific anti-iC3b Ab and PE-conjugated goat anti-mouse IgG and analyzing by flow cytometry.
# [6] = tested on: human neutrophils; test: Binding of PGG β-glucan to human neutrophils (BfD IV staining, flow cytometry); format: cell-based
# Procedure: (§1) Enriched neutrophils or PBMC were resuspended at 1×10^6 cells/mL in RPMI 1640 supplemented with 10% serum. PGG β-glucan at hexose concentrations 100 μg/mL, 200 μg/mL, or 400 μg/mL were added to neutrophils or PBMC and incubated in a 37° C., 5% CO2 humidified incubator for two hours. After incubation, cells were washed twice with FACS buffer (HBSS supplemented with 1% FBS and 0.1% sodium azide) to remove any unbound β-glucan, and subsequently treated with Fc block (Miltenyi Biotec, Auburn, Calif.). […] Cells were then incubated with FITC-conjugated F(ab′)2 goat anti-mouse IgM for 30 minutes at 4° C. and washed once with cold FACS buffer before fixing with 1% paraformaldehyde. In early optimization experiments, neutrophils, monocytes, and T cells were identified by staining with fluorescently labeled anti-CD 15, anti-CD 14, or anti-CD3 Abs, respectively. Events were collected on a LSRII flow cytometer (BD Biosciences, San Jose, Calif.) and analysis was performed using FLOWJO (Tree Star, Ashland, Oreg.). […] Surface binding of DTAF-conjugated β-glucan was subsequently assessed by flow cytometric analysis. […] The experiments to determine binding of PGG β-glucan at 200 μg/mL to neutrophils or at 100 μg/mL to PBMC were performed as described above with the following changes. For determining serum dependency, PGG β-glucan was incubated with neutrophils or PBMC resuspended in RPMI 1640 containing 2%, 5%, or 10% autologous serum at 37° C. for two hours. For time-course experiments, PGG β-glucan at indicated concentrations was incubated with cells resuspended in 10% autologous serum at 37° C. for 10 minutes, 20 minutes, 60 minutes, or 120 minutes. For temperature dependency experiments, PGG β-glucan at indicated concentrations was incubated with cells resuspended in 10% autologous serum for two hours at 4° C., room temperature, or 37° C.
# [7] = tested on: human monocytes; test: Binding of PGG β-glucan to human monocytes within PBMC (BfD IV staining, flow cytometry); format: cell-based
# Procedure: as §1
# [8] = 2%, 5% or 10% autologous serum, 37° C., two hours
# [9] = 10% autologous serum, 37° C., two hours
# [10] = 100, 200, 400 μg/mL, 10% autologous serum, 37° C., two hours
# [11] = two hours at 4° C., room temperature or 37° C., 10% serum
substance,measurement,setting,value
"β(1,6)-[poly-1,3)-D-glucopyranosyl]-poly-β(1,3)-D-glucopyranose [PGG β-glucan]","Extent of rescued binding to cells in HI serum (MFI, percentage of BfD IV positive cells)",[1],minimal
same,Blocking of DTAF-labeled β-glucan staining by excess unlabeled glucan,[2],blocked by excess unlabeled β-glucan
same,iC3b pulled down with BfD IV immunoprecipitate,[3]; glucan incubated with HI serum,no iC3b was detected
same,iC3b pulled down with BfD IV immunoprecipitate,[3]; glucan incubated with regular serum,iC3b protein was pulled-down
same,Formation of terminal complement complexes (fluid phase MAC) in serum treated with the glucan,[4],did not activate formation of terminal complement complexes
same,iC3b staining on cells incubated with β-glucan vs serum alone,[5],increased staining of iC3b
same,Minimum concentration of β-glucan detected on the cells by the BfD IV detection system,[6],100 µg/mL
same,Incubation time of maximal binding,"[6]; 200 μg/mL, 10% serum, 37° C.",30 to 60 min
same,Percentage of serum at which maximal binding occurred,[6]; [8],10%
same,Percentage of serum at which minimum binding occurred,[6]; [8],2%
same,Concentration at which percentage of BfD IV positive cells reached a plateau,[6]; [9],200 µg/mL
same,Binding (MFI and percentage of BfD IV positive cells),[6]; [10],bound to both neutrophils and monocytes
same,Incubation temperature of maximal binding,[6]; [11],37 °C
same,Minimum concentration of β-glucan detected on the cells by the BfD IV detection system,[7],100 µg/mL
same,Incubation time of maximal binding,"[7]; 100 μg/mL, 10% serum, 37° C.",60 to 120 min
same,Percentage of serum at which maximal binding occurred,[7]; [8],10%
same,Percentage of serum at which minimum binding occurred,[7]; [8],2%
same,Concentration at which percentage of BfD IV positive cells reached a plateau,[7]; [9],200 µg/mL
same,Binding (MFI and percentage of BfD IV positive cells),[7]; [10],bound to both neutrophils and monocytes
same,Incubation temperature of maximal binding,[7]; [11],37 °C
